{
  "source": "patent US20090247527A1",
  "about": "“SUBSTITUTED GAMMA LACTAMS AS THERAPEUTIC AGENTS” (ALLERGAN, INC., priority 2008, published 2009)",
  "system": "lashes and adjacent hairs of patients having glaucoma",
  "assay": "Observation of lashes and adjacent hairs in glaucoma patients treated with bimatoprost in one eye",
  "format": "in vivo, human",
  "conditions": "glaucoma patients treated unilaterally; gross inspection and slit lamp biomicroscope",
  "description": "In the course of treating patients having glaucoma, treatment may only be appropriate in one eye. […] The lash appearance on the lids of the treated eyes would have appeared quite attractive if it represented a bilateral phenomenon. As a result of its asymmetric nature, the long lashes on one side could be construed as disturbing from a cosmetic standpoint. A systemic examination was preformed as a result of the asymmetric phenomenon. It soon became apparent that this altered appearance was not an isolated finding. […] Definite differences could be identified to varying degrees in the lashes and adjacent hairs of all patients who were taking the drug on a unilateral basis for longer than 6 months.\nThe changes in the lashes were apparent on gross inspection in several patients once attention was focused on the issue. In those with light colored hair and lashes, the differences were only seen easily with the aid of the high magnification and lighting capabilities of the slit lamp biomicroscope. In the course of glaucoma follow-up examination, attention is generally immediately focused on the eye itself. As a result of the high power magnification needed only one eye is seen at a time and the eye is seen at a high enough power that the lashes are not in focus. […]",
  "note": "“Also recorded” adds a separate entry of the source.",
  "data": [
    {"smiles": "CCNC(=O)CCC/C=C\\C[C@@H]1[C@@H](/C=C/[C@@H](O)CCc2ccccc2)[C@H](O)C[C@@H]1O", "note": "[bimatoprost]", "values": [
      {"measurement": "lash / hair growth in treated eye versus non-treated eye", "result": "longer, thicker, and fuller in the treated eye than in the non-treated eye; also recorded: hair growth is stimulated"}
    ]}
  ]
}
